According to article PMC12935919 (Frontiers in Pharmacology, 2026):
No end group written: not given here.

How the values were obtained:
[1] = system: C2C12 cells; assay: Preliminary screening of candidate peptides; type: cell-based
Excerpt: Supplementary Figure 1. […] Western blot images from the screening experiment are shown, and the summary table indicates peptides that met each criterion (O, yes; X, no; –, not determined).

[2] = system: patients with muscle atrophy (ICD-10-CM code: M62.5); assay: Clinical trial: safety, treatment emergent adverse events; type: in vivo, human; details: 12 weeks, 200 mg/day, N=40
Excerpt: All participants provided written informed consent prior to any study procedures. Key eligibility criteria included adults aged ≥18 years with low muscle mass by DEXA (men: <7.0 kg/m^2; women: <5.4 kg/m^2) and either low handgrip strength (men: <28 kg; women: <18 kg) or low physical performance (6-m walk speed <1.0 m/s). Major exclusion criteria included uncontrolled systemic disease, musculoskeletal or neurological disorders, recent anabolic steroid use, and concomitant medications known to affect protein metabolism; full inclusion and exclusion criteria are provided in Supplementary Table S1. Of 89 patients screened, seven were screen failures and two withdrew prior to randomization; 80 eligible participants were enrolled and proceeded to the baseline/randomization visit (mean age 38.83 ± 9.91 years; range 23–69).

[3] = system: patients with muscle atrophy (ICD-10-CM code: M62.5); assay: Clinical trial: serum biomarkers; type: in vivo, human
Procedure: The study was conducted at Biosite Research Private Limited (Shanthipura, India) under the New Drugs and Clinical Trials Rules (2019) issued by CDSCO (Ministry of Health and Family Welfare, Government of India), and in compliance with GCP, applicable local regulatory requirements, the Declaration of Helsinki ([…]), ICMR guidelines (2017), and ICH-GCP E6 (R2). Ethical approval was obtained from the Excel Hospital Institutional Ethics Committee (ECR/1670/Inst/TG/2022) and ethics committees of other participating centers, and the trial was prospectively registered (CTRI/2024/01/061919). All participants provided written informed consent prior to any study procedures. Key eligibility criteria included adults aged ≥18 years with low muscle mass by DEXA (men: <7.0 kg/m^2; women: <5.4 kg/m^2) and either low handgrip strength (men: <28 kg; women: <18 kg) or low physical performance (6-m walk speed <1.0 m/s). Major exclusion criteria included uncontrolled systemic disease, musculoskeletal or neurological disorders, recent anabolic steroid use, and concomitant medications known to affect protein metabolism; full inclusion and exclusion criteria are provided in Supplementary Table S1. Of 89 patients screened, seven were screen failures and two withdrew prior to randomization; 80 eligible participants were enrolled and proceeded to the baseline/randomization visit (mean age 38.83 ± 9.91 years; range 23-69). […] The study was double-blind; participants, investigators, and study staff were unaware of treatment allocation throughout the trial. […] Efficacy endpoints were evaluated as changes from baseline to Week 12; efficacy analyses were conducted in the per-protocol population, and safety analyses included all randomized participants who received at least one dose of study product (Supplementary Figure S2). Of 80 randomized participants, 75 completed the study. Statistical analyses were performed using SAS (version 9.4; SAS Institute Inc., Cary, NC, USA). Continuous variables were summarized as N, mean (SD), median, minimum, and maximum, and categorical variables as n (%), with percentages calculated as n/N × 100. Changes from baseline to Week 12 in DEXA-assessed muscle mass, 6-m walk test, and handgrip strength were analyzed using ANCOVA, adjusting for the corresponding baseline value. Least-squares means (LSMs), 95% confidence intervals, and two-sided p-values were reported, with p < 0.05 considered statistically significant.

[4] = system: SAMP8 mice; assay: Immunofluorescence in skeletal muscle tissues; type: in vivo, mouse; details: oral gavage 45 weeks, 20 mg in 200 µL PBS
Procedure: Eight week old male senescence-accelerated mouse-prone 8 (SAMP8)/Ta Slc and senescence-accelerated mouse-resistant 1 (SAMR1)/Ta Slc mice (weighing 30 ± 2 g) were purchased from Central Lab Animal Inc. (Seoul, Korea) and housed at 24 °C in cages under a 12/12 h light/dark cycle with ad libitum access to food and water. […] Mice in all groups were dosed once daily by oral gavage for 45 weeks. […] This study was approved by the Institutional Animal Care and Use Committee (approval number CG-R22-001).
Muscle tissues fixed in formalin were sectioned into 5-μm paraffin section. They were treated with heat-mediated antigen retrieval in TRS buffer TRS buffer (pH 6.2) and peroxide-blocked using reagent (Epredia, TA-125-PBQ). Primary antibodies—anti-myostatin (Abcam, ab124721), anti-atrogin-1/MAFbx (Santa Cruz, sc-166806), and anti-fast MyHC (Abcam, ab91506)—were diluted 1:250 or 1:500 in anti-body diluent (GBI Labs, E09-300) and incubated overnight at 4 °C. […] Nuclei were stained with 4′,6-diamidino-2-phenylindole (DAPI; blue) for 20 min, mounted using Aqua Mounting Media (Biomeda), and imaged at 200× with a confocal fluorescence microscope (LEICA, Wetzlar, Germany). Fluorescence intensities were quantified using ImageJ software, and results were statistically analyzed.

[5] = system: C2C12 cells; assay: Indirect immunofluorescence (MyoD, MYH3) and fusion index; type: cell-based
Procedure: Differentiated C2C12 cells cultured on coverslips were fixed at room temperature for 10 min with PBS containing 3.7% paraformaldehyde. Next, the samples were permeabilized with 0.25% Triton X-100/PBS for 10 min, blocked with 1% BSA/PBS, and incubated overnight with primary antibodies, anti-MyoD (Santa Cruz, sc-377460) and anti-MYH3 (Santa Cruz, sc-53091), followed by washing with PBS. The samples were then incubated for 1 h Alexa Fluor 488–conjugated goat anti-mouse IgG H&L (abcam, ab150113). Nuclei were stained with 4′,6-diamidino-2-phenylindole (DAPI; blue) for 5 min. The coverslips were mounted onto glass slides using an aqueous mounting solution (Biomeda, Foster City, CA, USA) and left to dry. Images were captured using a confocal laser-scanning microscope (LEICA, Wetzlar, Germany) at ×200 and ×400 magnifications for MYH3 and MyoD, respectively. The fluorescence intensity of each marker was quantified using ImageJ. For fusion index analysis, MYH3-stained images were used to quantify myotube formation by counting the number of DAPI-positive nuclei located within MYH3-positive multinucleated myotubes (defined as MYH3-positive cells containing ≥2 nuclei) and the total number of nuclei per field. Fusion index (%) was calculated as (nuclei within MYH3-positive multinucleated myotubes/total nuclei) × 100. Fusion index was calculated from multiple randomly selected fields captured under identical imaging settings and quantified in ImageJ.

[6] = Day 3, 100 μM, fluorescence intensity, mean ± SD

EAEYEHL-OH [Myoki]
myotube differentiation (screening) [1]: promoted myotube differentiation
DEX-induced activation of muscle protein degradation signaling, particularly atrogin-1/MAFbx upregulation (screening) ([1]; DEX): attenuated
TEAEs related to the study product [2]: No TEAEs were assessed as related to the study product
serious TEAEs [2]: no serious TEAEs were reported
severity and outcome of TEAEs [2]: all TEAEs were mild in severity and resolved
IGF-1, change from baseline to Week 12 (LS mean) ([3]; 200 mg peptide/day oral, N = 38, 95% CI (19.49 to 43.40), placebo 13.51): 31.44 ng/mL
TNF-alpha, change from baseline to Week 12 (LS mean) ([3]; 200 mg peptide/day oral, N = 38, 95% CI (−1.54 to 9.48), placebo 4.3): 3.97 pg/mL
Creatine kinase (CK-MB), change from baseline to Week 12 (LS mean) ([3]; 200 mg peptide/day oral, N = 38, 95% CI (−2.13 to 1.04), placebo 3.41): -0.54 ng/mL
IL-6, change from baseline to Week 12 (LS mean) ([3]; 200 mg peptide/day oral, N = 38, 95% CI (−2.59 to 2.67), placebo 1.31): 0.04 pg/mL
Aspartate aminotransferase, change from baseline to Week 12 (LS mean) ([3]; 200 mg peptide/day oral, N = 38, 95% CI (−6.14 to 0.49), placebo 2.57): −2.83 IU/L
Sex hormones (Estrogen), change from baseline to Week 12 (LS mean) ([3]; 200 mg peptide/day oral, N = 38, 95% CI (−8.11 to 3.36), placebo −1.98): -2.37 pg/mL
Myoglobin, change from baseline to Week 12 (LS mean) ([3]; 200 mg peptide/day oral, N = 38, 95% CI (−10.33 to −2.56), placebo 8.15): -6.45 ng/mL
Sex hormones (testosterone), change from baseline to Week 12 (LS mean) ([3]; 200 mg peptide/day oral, N = 38, 95% CI (−21.09 to 114.17), placebo −29.9): 46.54 pg/mL
Aspartate aminotransferase, difference between placebo and treatment (95% CI) ([3]; Week 12, 200 mg/day, p 0.025): −5.39 IU/L
IGF-1, difference between placebo and treatment (95% CI) ([3]; Week 12, 200 mg/day, p 0.038): 17.93 ng/mL
Creatine kinase (CK-MB), difference between placebo and treatment (95% CI) ([3]; Week 12, 200 mg/day, p <0.01): -3.95 ng/mL
Myoglobin, difference between placebo and treatment (95% CI) ([3]; Week 12, 200 mg/day, p <0.01): -14.6 ng/mL
fast-MyHC fluorescence intensity ([4]; n = 5): restored toward SAMR1 levels
atrogin-1/MAFbx fluorescence intensity, gastrocnemius ([4]; n = 5, vs SAMP8 group): significantly decreased
increase in MYH3 expression compared to the control [5, 6]: 191% ± 10.66%
increase in MyoD expression compared to the control [5, 6]: 190% ± 46.28%
increase in MYH3 fluorescence staining compared to the control ([5]; Day 6): 153%
